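In this assay, cells in 96-well plates receive the compound at five concentrations for 48 hours. Endpoints are linearly interpolated between the surrounding concentrations. Abbreviation: GI50, concentration required for 50% inhibition of growth. The concentration for full growth arrest is given as TGI.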 Where a SMILES comes first, the peptide text is derived from it. [ ]: non-standard residue; d: D form. The star is where a group is joined. ξ: configuration not given here. X16 = COC1=CC(=O)N(C(=O)C(O*)C(C)C)C1Cc1ccccc1; ξNMe2Val = CC(C)C(C(=O)*)N(C)C; NMeV = CN[CH](C(=O)O)C(C)C
Columns and labels:
Assay in all cases: inhibition of tumour cell growth, NCI panel, 48 h
[1] = tested on: SK-MEL-2 melanoma
[2] = tested on: 786-0 renal
[3] = tested on: UACC-257 melanoma
[4] = tested on: HCT-15 colon
[5] = tested on: SF-268 CNS
[6] = tested on: SK-MEL-5 melanoma
[7] = tested on: NCI-H23 lung
[8] = tested on: MDA-N
[9] = tested on: A549 NSCLC
[10] = tested on: BT-549 breast
[11] = tested on: MDA-MB-231 breast
[12] = tested on: RXF 393 renal

Compound | TGI [1] [µM] | TGI [2] [µM] | TGI [3] [µM] | TGI [4] [µM] | TGI [5] [µM] | TGI [6] [µM] | TGI [7] [µM] | TGI [8] [µM] | TGI [9] [µM] | TGI [10] [µM] | TGI [11] [µM] | TGI [12] [µM] | GI50 [1] [µM] | GI50 [12] [µM] | GI50 [4] [µM] | GI50 [5] [µM] | GI50 [6] [µM] | GI50 [7] [µM] | GI50 [9] [µM]
CN1CC(c2ccccc2)=Cc2c1ccc(N)c2N=N | > 100 | > 100 | > 100 | > 100 | > 100 | > 100 | > 100 | > 100 | > 100 | > 100 | > 100 |  |  |  |  |  |  |  | 
CCOC(=O)c1ccc(NC2Oc3cc4c(cc3C(c3cc(OC)c(OC)c(OC)c3)C2C)OCO4)cc1 (stereo not drawn) | > 63.4 | 46.6 | > 100 | > 54.6 | > 40.8 | 1.49 | > 67.3 |  | > 73.2 | 6.76 | 2.24 | 93.9 |  |  |  |  |  |  | 
CC12CC3c4ccccc4CN1C3(c1ccccc1)OC2=O (stereo not drawn) | > 100 | > 100 | > 100 | > 100 | > 100 | > 100 | > 100 |  | > 100 | > 100 | > 100 | > 100 |  |  |  |  |  |  | 
O=C1Nc2ccccc2C(=O)OC(Cc2ccccc2)=Nc2ccccc21 | > 100 | > 100 | > 100 | > 100 | > 100 | > 100 | > 100 | > 100 | > 100 | > 100 |  | > 100 |  |  |  |  |  |  | 
CC1C(c2ccc(N(C)C)cc2)c2cc3c(cc2OC1N1CCCC1)OCO3 (stereo not drawn) | > 82.6 | > 100 | > 100 | > 100 | > 100 | > 100 | > 100 | 46.9 | > 100 | > 100 |  | > 100 |  |  |  |  |  |  | 
Nc1c(Br)cc(-c2cc(Br)c(N)c(Br)c2)cc1Br |  | > 100 | > 100 |  | > 100 | > 100 | > 100 | > 100 | > 100 |  | > 100 | > 100 |  |  |  |  |  |  | 
N#Cc1[nH]c(=O)n(-c2ccc([N+](=O)[O-])cc2)c1N | > 10 | > 10 | > 10 | > 10 | > 10 | > 10 | > 10 | > 10 | > 10 |  | > 10 | > 10 |  |  |  |  |  |  | 
N#CC(c1ccc(O)cc1)N1CCN(C(C#N)c2ccc(O)cc2)CC1 (stereo not drawn) | > 100 | > 100 | > 100 | > 100 | 64.4 | > 100 | > 100 |  | > 100 | > 100 | 55.8 | > 92.5 |  |  |  |  |  |  | 
CC(C)CN1CN(c2ccccc2)C2(CCN(CC(C)(c3ccc(F)cc3)C3OCCO3)CC2)C1=O (stereo not drawn) | 11.5 | 12.1 | 10.8 | 16.6 | 30.1 | 4.95 | 8.69 | 19.6 | 19.7 | 20.9 |  | 21.9 |  |  |  |  |  |  | 
COc1ccc(-c2nc3ncccn3c2-c2ccc(S(C)=O)cc2)cc1 (stereo not drawn) | > 100 | > 100 | > 100 | > 100 | > 100 | > 100 | > 100 | > 100 | > 100 | > 100 | > 100 |  |  |  |  |  |  |  | 
N#Cc1c(-c2ccco2)c2c(n(C3OC(CO)C(O)C(O)C3O)c1=S)CCCC2 (stereo not drawn) | > 100 | > 100 | > 100 | > 100 | > 100 | > 100 | > 100 | > 100 | > 100 |  | > 100 | > 100 |  |  |  |  |  |  | 
O=c1cnn(C2OC(CO)C(O)C(F)C2O)c(=O)[nH]1 (stereo not drawn) | > 100 | > 100 | > 100 | > 100 | > 100 | > 100 | > 100 | > 100 | > 100 | > 100 | > 100 |  |  |  |  |  |  |  | 
C[N+]1(C)CC=C(N2CCOCC2)CC1 | > 10 | > 10 | > 10 | > 10 | > 10 | > 10 | > 10 | > 10 | > 10 |  | > 10 | > 10 |  |  |  |  |  |  | 
CC(=O)N[C@@H](Cc1ccc(O)cn1)C(=O)NCc1cccc(F)c1 | > 100 | > 100 | > 100 | > 100 | > 100 | > 100 | > 100 | > 100 | > 100 | > 100 |  | > 100 |  |  |  |  |  |  | 
CC1(C)CCc2c(cc3c(c2O)CCC(C)(C)O3)O1 | 98.3 |  | > 100 | > 100 | > 100 | > 100 | > 100 | > 100 | > 100 | > 100 | > 100 |  |  |  |  |  |  |  | 
COc1c2cc(C(C)(C)C)cc1CSCc1cc(C(C)(C)C)cc(c1OC)CCCCC2 | > 50 | > 50 | 49.1 | > 50 | > 50 | > 50 | > 50 | > 50 | > 50 | > 50 | > 50 |  |  |  |  |  |  |  | 
O=S(=O)(O)c1ccc(NN(c2c(O)ccc3ccccc23)S(=O)(=O)O)cc1 | > 100 | > 100 | > 100 | > 100 | > 100 | > 100 | > 100 | > 100 | > 100 | > 100 | > 100 |  |  |  |  |  |  |  | 
Oc1ccc(-c2cc(-c3c(O)cc(O)cc3O)on2)cc1 | > 100 | > 100 | > 100 | > 100 | > 100 | > 100 | > 100 | > 100 | > 100 | > 100 | > 100 |  |  |  |  |  |  |  | 
COc1ccc(-n2c(CCCC(=O)O)nc3c2C(=O)c2ccccc2C3=O)cc1 | > 100 | > 100 | > 100 | > 100 | > 100 |  | > 100 | > 100 | > 100 | > 100 | > 100 |  |  |  |  |  |  |  | 
CC(C)(C)C1CCC2c3c([nH]c4ccccc34)C3C(=O)N(c4cc(Br)cc(Br)c4)C(=O)C3C2C1 (stereo not drawn) | 47.5 | 18.6 | > 100 | > 100 |  | > 100 | 63.3 | > 100 | > 100 | > 100 | 58.8 |  |  |  |  |  |  |  | 
COC(=O)[C@]1(C)CCCn2c(=O)n(-c3ccccc3)c(=O)n21 | > 100 | > 100 | > 100 | > 100 | > 100 | > 100 | > 100 |  | > 100 | > 100 | > 100 | > 100 |  |  |  |  |  |  | 
O=C(C=P(c1ccccc1)(c1ccccc1)c1ccccc1)C12CC3CC(CC(C3)C1)C2 | 29.5 | 33.4 | 32.8 | 26.7 | 41.6 | 28.8 | 33.2 | 29.2 | 36 | 33.8 | 32.9 |  |  |  |  |  |  |  | 
O=[N+]([O-])/C(C(Cl)=C(Cl)Cl)=C1\Nc2ccccc2O1 | > 100 | 32.1 | > 100 | > 100 | > 100 | > 100 | > 100 | > 100 | > 100 |  | > 100 | > 100 |  |  |  |  |  |  | 
CCOn1cc(C[C@@]2(O)C(=O)OC3[C@@H](O)CO[C@@]32O)c2ccccc21 (stereo partly drawn) | > 100 | > 100 | > 100 | > 100 | > 100 | > 100 | > 100 |  | > 100 | > 100 | > 100 | > 100 |  |  |  |  |  |  | 
COc1ccc(C2CC(c3cc4c(C)c(C(=O)c5ccccc5)oc4cc3O)=Nc3ccccc3S2)cc1OC (stereo not drawn) | > 100 | > 100 | > 100 | > 100 | > 100 | > 100 | > 100 | > 61.6 | > 100 | > 100 | > 100 |  |  |  |  |  |  |  | 
C=C(NC(=O)C(=C)NC(=O)c1csc(C2=NC3c4csc(n4)C4NC(=O)c5csc(n5)C(C(C)(O)C(C)O)NC(=O)C5CSC(=N5)/C(=C/C)NC(=O)C(C(C)O)NC(=O)c5csc(n5)C3(CC2)NC(=O)C(C)NC(=O)C(=C)NC(=O)C(=C)NC(=O)C(C(C)C)NC2C=Cc3c(C(C)O)cc(nc3C2O)C(=O)OC4C)n1)C(N)=O (stereo not drawn) | > 38.9 | 11.3 | 18.7 | > 63.4 | > 100 | > 100 | > 62.6 | > 100 | > 48.5 | 7.88 | > 100 |  |  |  |  |  |  |  | 
COC1=CC(=O)N(C(=O)C(OC(=O)C2CCCN2C(=O)C2CCCN2C(=O)C(C(C)C)N(C)C(=O)C(NC(=O)C(C(C)C)N(C)C)C(C)C)C(C)C)C1Cc1ccccc1 (stereo not drawn) (ξNMe2Val-V[NMeV]PP-X16; configuration not given here) |  |  |  | 0.431 | 0.31 |  | 0.0145 | 0.000275 | > 4 |  |  |  | < 0.0004 | < 0.0004 | < 0.0004 | < 0.0004 | < 0.0004 | < 0.0004 | 0.00715
Fc1cccc(F)c1C1SCC2=Nc3ccccc3CN21 (stereo not drawn) |  | > 100 | > 100 | > 100 |  | > 100 | > 100 | > 100 | > 100 | > 100 | > 100 | 63.2 |  |  |  |  |  |  | 

Reference: PubChem BioAssay (NCI)
